Values quoted from earlier work in patent US20090186834A1, “DIPHENYLHETEROCYCLE CHOLESTEROL ABSORPTION INHIBITORS” (MICROBIA, INC., priority 2005, published 2009).

Legend:
[1] = test system: fat-SOluble vitamin absorption; details: in humans
[2] = test system: absorption of taurocholic acid; details: in vivo

O=C1[C@H](CC[C@H](O)c2ccc(F)cc2)[C@@H](c2ccc(O)cc2)N1c1ccc(F)cc1 [ezetimibe, (3R,4S)-1-(4-fluorophenyl)-3-[(3S)-3-(4-fluorophenyl)-3-hydroxypropyl]-4-(4-hydroxyphenyl)azetidin-2-one]
effect on fat-SOluble vitamin absorption [1]: does not appear to affect | inhibition of the absorption of taurocholic acid [2]: does not inhibit
